From patent publication US12448375B2, “Kinase inhibitors for the treatment of neurodegenerative diseases” (Ohio State Innovation Foundation, priority 2019, dated 2025)

Legend:
Assay type in all cases: biochemical
Details in all cases: HotSpot radiometric assay, 33P-ATP
JNK1 = biological target: T1, JNK1 (Homo sapiens, UniProt P45983); experiment: HotSpot Kinase Assay, JNK1
T1 construct: purchased Reaction Biology Corp
Description: (§1) The anti-JNK3 activity of compounds prepared as in the previous examples was evaluated using a Reaction Biology Corp. HotSpot Kinase Assay. Base reaction buffer was 20 mM HEPES (4-(2-hydroxyethyl)-1-piperazineethanesulfonic acid) at pH 7.5 with 10 mM MgCl2, 1 mM EGTA (ethylene glycol-bis(β-aminoethyl ether)-N,N,N′,N′-tetracetic acid), 0.02% Brij™ 35, 0.02 mg/mL BSA (bovine serum albumin), 0.1 mM Na3VO4, 2 mM DTT (dithiothreitol), and 1% DMSO. Required cofactors were added individually to each kinase reaction.
(§2) Activity against related enzymes JNK1 and P38a was further assessed using the same assay.

JNK3 = biological target: T2, JNK3 (Homo sapiens, UniProt P53779); experiment: HotSpot Kinase Assay (Reaction Biology Corp.), anti-JNK3 activity
T2 construct: purchased Reaction Biology Corp
Description: as §1, §2

p38a = biological target: T3, p38a (Homo sapiens, UniProt Q16539); experiment: HotSpot Kinase Assay, P38a
T3 construct: purchased Reaction Biology Corp
Description: as §1, §2

T1 sequence (P45983 whole entry): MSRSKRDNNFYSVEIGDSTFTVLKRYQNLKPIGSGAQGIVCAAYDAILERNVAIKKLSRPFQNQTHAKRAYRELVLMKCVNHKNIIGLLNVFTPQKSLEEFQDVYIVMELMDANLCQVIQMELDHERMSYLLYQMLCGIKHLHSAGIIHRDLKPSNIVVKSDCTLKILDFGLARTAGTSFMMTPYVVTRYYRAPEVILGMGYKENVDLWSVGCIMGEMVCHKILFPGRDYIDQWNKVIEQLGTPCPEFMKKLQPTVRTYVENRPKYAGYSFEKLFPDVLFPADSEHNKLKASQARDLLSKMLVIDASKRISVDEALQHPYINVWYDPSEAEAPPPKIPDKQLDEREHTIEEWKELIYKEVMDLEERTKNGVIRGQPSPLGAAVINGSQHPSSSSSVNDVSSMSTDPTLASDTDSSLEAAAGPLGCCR
T2 sequence (P53779 whole entry): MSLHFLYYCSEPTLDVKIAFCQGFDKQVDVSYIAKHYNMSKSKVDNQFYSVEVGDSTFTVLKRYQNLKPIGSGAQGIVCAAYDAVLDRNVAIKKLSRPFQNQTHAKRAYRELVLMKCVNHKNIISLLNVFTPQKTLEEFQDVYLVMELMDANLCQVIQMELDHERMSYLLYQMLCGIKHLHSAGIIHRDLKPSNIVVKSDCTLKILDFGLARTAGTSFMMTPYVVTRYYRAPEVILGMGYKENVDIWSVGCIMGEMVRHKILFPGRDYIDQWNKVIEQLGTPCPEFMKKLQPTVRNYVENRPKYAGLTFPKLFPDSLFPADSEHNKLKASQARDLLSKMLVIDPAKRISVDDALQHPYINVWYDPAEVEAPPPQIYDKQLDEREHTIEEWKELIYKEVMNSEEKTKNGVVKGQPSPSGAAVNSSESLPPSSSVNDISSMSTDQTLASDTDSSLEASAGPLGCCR
T3 sequence (Q16539 whole entry): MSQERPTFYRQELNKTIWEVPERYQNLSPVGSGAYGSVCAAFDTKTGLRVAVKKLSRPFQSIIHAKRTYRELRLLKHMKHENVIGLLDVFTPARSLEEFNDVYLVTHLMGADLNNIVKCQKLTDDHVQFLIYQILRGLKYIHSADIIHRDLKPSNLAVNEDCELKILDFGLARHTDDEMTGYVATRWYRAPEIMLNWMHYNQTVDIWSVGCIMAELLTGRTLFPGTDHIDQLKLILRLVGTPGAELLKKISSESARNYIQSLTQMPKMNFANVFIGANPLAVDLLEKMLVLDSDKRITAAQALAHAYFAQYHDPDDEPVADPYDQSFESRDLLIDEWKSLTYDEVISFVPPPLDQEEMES

| SMILES | IC50 (JNK1) [µM] | IC50 (JNK3) [µM] | IC50 (p38a) [µM] |
| --- | --- | --- | --- |
| COCCNC(=O)c1cc(-n2ncc3cc(Oc4ccccc4Cl)ncc32)cs1 [Compound 14, 4-(5-(2-chlorophenoxy)-1H-pyrazolo[3,4-c]pyridin-1-yl)-N-(2-methoxyethyl)thiophene-2-carboxamide] | > 1 | < 0.2 | > 1 |
| CN1CCN=C1NC(=O)c1cc(-n2ncc3cc(Nc4ccccc4Cl)ncc32)cs1 [Compound 21, 4-(5-((2-chlorophenyl)amino)-1H-pyrazolo[3,4-c]pyridin-1-yl)-N-(1-methyl-4,5-dihydro-1H-imidazol-2-yl)thiophene-2-carboxamide] |  | < 0.2 |  |
| CNC(=O)c1cc(-n2ncc3nc(Nc4ccccc4Cl)ncc32)cs1 [Compound 41, 4-(5-((2-chlorophenyl)amino)-1H-pyrazolo[4,3-d]pyrimidin-1-yl)-N-methylthiophene-2-carboxamide] |  | 0.2 to 1 |  |
| O=C(NC1CCOCC1)c1cc(-n2ncc3cc(Nc4ccccc4Cl)c(F)cc32)cs1 [Compound 38, 4-(5-((2-chlorophenyl)amino)-6-fluoro-1H-indazol-1-yl)-N-(tetrahydro-2H-pyran-4-yl)thiophene-2-carboxamide] | < 0.2 | < 0.2 | < 0.2 |
| N#CCNC(=O)c1cc(-n2ncc3cc(Nc4ccccc4Cl)ccc32)cs1 [Compound 46, 4-(5-((2-chlorophenyl)amino)-1H-indazol-1-yl)-N-(cyanomethyl)thiophene-2-carboxamide] |  | < 0.2 |  |
| COCCNC(=O)c1cc(-n2ncc3cc(Nc4ccccc4Cl)c(F)cc32)cs1 [Compound 37, 4-(5-((2-chlorophenyl)amino)-6-fluoro-1H-indazol-1-yl)-N-(2-methoxyethyl)thiophene-2-carboxamide] | < 0.2 | < 0.2 | < 0.2 |
| CNC(=O)c1cc(-n2ncc3cc(Oc4ccccc4Cl)ncc32)cs1 [Compound 15, 4-(5-(2-chlorophenoxy)-1H-pyrazolo[3,4-c]pyridin-1-yl)-N-methylthiophene-2-carboxamide] |  | < 0.2 |  |
| Cn1cnc(NC(=O)c2cc(-n3ncc4nc(Nc5ccccc5Cl)ccc43)cs2)c1 [Compound 57, 4-(5-((2-chlorophenyl)amino)-1H-pyrazolo[4,3-b]pyridin-1-yl)-N-(1-methyl-1H-imidazol-4-yl)thiophene-2-carboxamide] |  | < 0.2 |  |
| Cn1ccnc1NC(=O)c1cc(-n2ncc3nc(Nc4ccccc4Cl)ccc32)cs1 [Compound 59, 4-(5-((2-chlorophenyl)amino)-1H-pyrazolo[4,3-b]pyridin-1-yl)-N-(1-methyl-1H-imidazol-2-yl)thiophene-2-carboxamide] |  | 0.2 to 1 |  |
| O=C(NC1COC1)c1cc(-n2ncc3cc(Nc4ccccc4Cl)ncc32)cs1 [Compound 20, 4-(5-((2-chlorophenyl)amino)-1H-pyrazolo[3,4-c]pyridin-1-yl)-N-(oxetan-3-yl)thiophene-2-carboxamide] |  | < 0.2 |  |
| O=C(NCCCF)c1cc(-n2ncc3nc(Nc4ccccc4Cl)ncc32)cs1 [Compound 42, 4-(5-((2-chlorophenyl)amino)-1H-pyrazolo[4,3-d]pyrimidin-1-yl)-N-(3-fluoropropyl)thiophene-2-carboxamide] |  | < 0.2 |  |
| O=C(NC1COC1)c1cc(-n2ncc3cc(Oc4ccccc4Cl)ncc32)cs1 [Compound 23, 4-(5-(2-chlorophenoxy)-1H-pyrazolo[3,4-c]pyridin-1-yl)-N-(oxetan-3-yl)thiophene-2-carboxamide] |  | 0.2 to 1 |  |
| CCNC(=O)c1cc(-n2ncc3cc(Oc4ccccc4Cl)ncc32)cs1 [Compound 18, 4-(5-(2-chlorophenoxy)-1H-pyrazolo[3,4-c]pyridin-1-yl)-N-ethylthiophene-2-carboxamide] |  | < 0.2 |  |
| CNC(=O)c1cc(-n2ncc3cc(Nc4cccc(F)c4Cl)ncc32)cs1 [Compound 24, 4-(5-((2-chloro-3-fluorophenyl)amino)-1H-pyrazolo[3,4-c]pyridin-1-yl)-N-methylthiophene-2-carboxamide] |  | < 0.2 |  |
| O=C(N[C@H]1CCOC1)c1cc(-n2ncc3nc(Nc4ccccc4Cl)ccc32)cs1 [Compound 51, (S)-4-(5-((2-chlorophenyl)amino)-1H-pyrazolo[4,3-b]pyridin-1-yl)-N-(tetrahydrofuran-3-yl)thiophene-2-carboxamide] |  | < 0.2 |  |
| COC(=O)N1CC(NC(=O)c2cc(-n3ncc4cc(Nc5ccccc5Cl)ccc43)cs2)C1 [Compound 33, Methyl 3-(4-(5-((2-chlorophenyl)amino)-1H-indazol-1-yl)thiophene-2-carboxamido)azetidine-1-carboxylate] |  | < 0.2 |  |
| CC(=O)N1CC(NC(=O)c2cc(-n3ncc4cc(Nc5ccccc5Cl)ccc43)cs2)C1 [Compound 29, N-(1-acetylazetidin-3-yl)-4-(5-((2-chlorophenyl)amino)-1H-indazol-1-yl)thiophene-2-carboxamide] |  | < 0.2 |  |
| Cn1cnc(NC(=O)c2cc(-n3ncc4cc(Nc5ccccc5Cl)ncc43)cs2)c1 [Compound 19, 4-(5-((2-chlorophenyl)amino)-1H-pyrazolo[3,4-c]pyridin-1-yl)-N-(1-methyl-1H-imidazol-4-yl)thiophene-2-carboxamide] |  | < 0.2 |  |
| O=C(NC1=NCCO1)c1cc(-n2ncc3cc(Nc4ccccc4Cl)c(F)cc32)cs1 [Compound 43, 4-(5-((2-chlorophenyl)amino)-6-fluoro-1H-indazol-1-yl)-N-(4,5-dihydrooxazol-2-yl)thiophene-2-carboxamide] |  | < 0.2 |  |
| CN1CCN=C1NC(=O)c1cc(-n2ncc3cc(Nc4ccccc4Cl)ccc32)cs1 [Compound 45, 4-(5-((2-chlorophenyl)amino)-1H-indazol-1-yl)-N-(1-methyl-4,5-dihydro-1H-imidazol-2-yl)thiophene-2-carboxamide] |  | < 0.2 |  |
| CCNC(=O)c1cc(-n2ncc3cc(Nc4ccccc4Cl)ncc32)cs1 [Compound 26, 4-(5-((2-chlorophenyl)amino)-1H-pyrazolo[3,4-c]pyridin-1-yl)-N-ethylthiophene-2-carboxamide] |  | < 0.2 |  |
| CC(=O)N1CC(NC(=O)c2cc(-n3ncc4cc(Nc5ccccc5Cl)ncc43)cs2)C1 [Compound 22, N-(1-acetylazetidin-3-yl)-4-(5-((2-chlorophenyl)amino)-1H-pyrazolo[3,4-c]pyridin-1-yl)thiophene-2-carboxamide] |  | < 0.2 |  |

Continued, values first:

| IC50 (JNK1) [µM] | IC50 (JNK3) [µM] | IC50 (p38a) [µM] | SMILES |
| --- | --- | --- | --- |
| 0.2 to 1 | < 0.2 | > 1 | Cc1sc(C(=O)NC2COC2)cc1-n1ncc2cc(Nc3ccccc3Cl)cnc21 [Compound 68, 4-(5-((2-chlorophenyl)amino)-1H-pyrazolo[3,4-b]pyridin-1-yl)-5-methyl-N-(oxetan-3-yl)thiophene-2-carboxamide] |
| 0.2 to 1 | < 0.2 | 0.2 to 1 | CNC(=O)c1cc(-n2ncc3cc(Nc4ccccc4Cl)c(C)nc32)cs1 [Compound 76, 4-(5-((2-chlorophenyl)amino)-6-methyl-1H-pyrazolo[3,4-b]pyridin-1-yl)-N-methylthiophene-2-carboxamide] |
| > 1 | < 0.2 | 0.2 to 1 | CNC(=O)c1cc(-n2ncc3cc(Nc4ccccc4OC)c(F)cc32)cs1 [Compound 80, 4-(6-fluoro-5-((2-methoxyphenyl)amino)-1H-indazol-1-yl)-N-methylthiophene-2-carboxamide] |
| 0.2 to 1 | < 0.2 | 0.2 to 1 | CNC(=O)c1cc(-n2ncc3cc(Nc4c(F)cccc4Cl)c(COC)cc32)cs1 [Compound 152] |
| 0.2 to 1 | < 0.2 | < 0.2 | CC(=O)N1CC(NC(=O)c2cc(-n3ncc4cc(Nc5ccccc5Cl)cnc43)cs2)C1 [Compound 71, N-(1-acetylazetidin-3-yl)-4-(5-((2-chlorophenyl)amino)-1H-pyrazolo[3,4-b]pyridin-1-yl)thiophene-2-carboxamide] |
| > 1 | < 0.2 | < 0.2 | COc1ccccc1Nc1cc2cnn(-c3csc(C(=O)NC4COC4)c3)c2cc1F [Compound 77, 4-(6-fluoro-5-((2-methoxyphenyl)amino)-1H-indazol-1-yl)-N-(oxetan-3-yl)thiophene-2-carboxamide] |
| 0.2 to 1 | < 0.2 | 0.2 to 1 | CNC(=O)c1cc(-n2ncc3cc(Nc4cccc(OC)c4Cl)c(C)nc32)cs1 [Compound 81, 4-(5-((2-chloro-3-methoxyphenyl)amino)-6-methyl-1H-pyrazolo[3,4-b]pyridin-1-yl)-N-methylthiophene-2-carboxamide] |
|  | < 0.2 |  | CN1C[C@@H](NC(=O)c2cc(-n3ncc4nc(Nc5ccccc5Cl)ccc43)cs2)CC1=O [Compound 60, (S)-4-(5-((2-chlorophenyl)amino)-1H-pyrazolo[4,3-b]pyridin-1-yl)-N-(1-methyl-5-oxopyrrolidin-3-yl)thiophene-2-carboxamide] |
|  | < 0.2 |  | Cn1ccnc1NC(=O)c1cc(-n2ncc3cc(Nc4ccccc4Cl)cnc32)cs1 [Compound 67, 4-(5-((2-chlorophenyl)amino)-1H-pyrazolo[3,4-b]pyridin-1-yl)-N-(1-methyl-1H-imidazol-2-yl)thiophene-2-carboxamide] |
|  | < 0.2 |  | CCNC(=O)c1cc(-n2ncc3cc(Oc4ccccc4Cl)cnc32)cs1 [Compound 73, 4-(5-(2-chlorophenoxy)-1H-pyrazolo[3,4-b]pyridin-1-yl)-N-ethylthiophene-2-carboxamide] |
|  | < 0.2 |  | Cn1cnc(NC(=O)c2cc(-n3ncc4cc(Nc5ccccc5Cl)cnc43)cs2)c1 [Compound 66, 4-(5-((2-chlorophenyl)amino)-1H-pyrazolo[3,4-b]pyridin-1-yl)-N-(1-methyl-1H-imidazol-4-yl)thiophene-2-carboxamide] |
